From patent US8889906B2, “Tetralin and indane derivatives and uses thereof” (Roche Palo Alto LLC, priority 2004, dated 2014) come the findings set out here.

Series [1] concerns the target T1, recombinant human 5-HT2A receptor (Homo sapiens, UniProt P28223).
T1 construct: expressed in transfected cells
As to the kind of experiment: 5-HT2A radioligand binding ([3H]Ketanserin competition). As to conditions: [3H]Ketanserin displacement, membranes of CHO-K1 cells expressing recombinant human 5-HT2A receptor, 32° C.; read-out: pKi for 5-HT2A (converted). The protocol: (§1) The binding activity of compounds of this invention in vitro was determined as follows. Duplicate determinations of 5-HT6 ligand affinity were made by competing for binding of [^3H]LSD in cell membranes derived from HEK293 cells stably expressing recombinant human 5-HT6 receptor. Duplicate determinations of 5-HT2A ligand affinity were made by competing for binding of [^3H]Ketanserin (3-(2-(4-(4-fluorobenzoyl)piperidinol)ethyl)-2,4(1H,3H)-quinazolinedione) in cell membranes derived from CHO-K1 cells stably expressing recombinant human 5-HT2A receptor. Membranes were prepared from HEK 293 cell lines by the method described by Monsma et al., Molecular Pharmacology, Vol. 43 pp. 320-327 (1993), and from CHO-K1 cell lines as described by Bonhaus et al., Br J Pharmacol. June; 115(4):622-8 (1995).
(§2) For estimation of affinity at the 5-HT6 receptor, all determinations were made in assay buffer containing 50 mM Tris-HCl, 10 mM MgSO4, 0.5 mM EDTA, 1 mM ascorbic acid, pH 7.4 at 37° C., in a 250 microliter reaction volume. […]
(§3) Assay tubes containing [^3H] […] Ketanserin were determined as radioactive counts per minute using Packard TopCount.
(§4) Displacement of [^3H]LSD or [^3H]Ketanserin from the binding sites was quantified by fitting concentration-binding data to a 4-parameter logistic equation: […]

The target of series [2] is T2, recombinant human 5-HT6 receptor (Homo sapiens, UniProt P50406).
T2 construct: expressed in transfected cells
T2 sequence (P50406 whole entry): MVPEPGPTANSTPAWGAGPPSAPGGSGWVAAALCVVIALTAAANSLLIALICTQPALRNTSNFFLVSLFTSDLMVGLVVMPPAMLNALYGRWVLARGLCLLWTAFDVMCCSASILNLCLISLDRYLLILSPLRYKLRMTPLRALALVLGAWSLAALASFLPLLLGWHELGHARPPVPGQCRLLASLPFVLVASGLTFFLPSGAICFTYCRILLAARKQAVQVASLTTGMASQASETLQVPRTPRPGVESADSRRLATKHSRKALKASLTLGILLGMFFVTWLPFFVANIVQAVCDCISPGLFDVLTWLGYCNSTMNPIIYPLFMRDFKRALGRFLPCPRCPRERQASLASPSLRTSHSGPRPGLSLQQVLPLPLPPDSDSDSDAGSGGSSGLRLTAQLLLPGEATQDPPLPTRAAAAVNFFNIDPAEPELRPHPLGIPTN
As to the kind of experiment: 5-HT6 radioligand binding ([3H]LSD competition). The conditions noted are these: [3H]LSD displacement, membranes of HEK293 cells expressing recombinant human 5-HT6 receptor, 37° C.; read-out: pKi for 5-HT6 (converted). The protocol:
as §1, §2, §3, §4

Structures can show the parent of a compound that is named as a salt.

T1 sequence (P28223 whole entry): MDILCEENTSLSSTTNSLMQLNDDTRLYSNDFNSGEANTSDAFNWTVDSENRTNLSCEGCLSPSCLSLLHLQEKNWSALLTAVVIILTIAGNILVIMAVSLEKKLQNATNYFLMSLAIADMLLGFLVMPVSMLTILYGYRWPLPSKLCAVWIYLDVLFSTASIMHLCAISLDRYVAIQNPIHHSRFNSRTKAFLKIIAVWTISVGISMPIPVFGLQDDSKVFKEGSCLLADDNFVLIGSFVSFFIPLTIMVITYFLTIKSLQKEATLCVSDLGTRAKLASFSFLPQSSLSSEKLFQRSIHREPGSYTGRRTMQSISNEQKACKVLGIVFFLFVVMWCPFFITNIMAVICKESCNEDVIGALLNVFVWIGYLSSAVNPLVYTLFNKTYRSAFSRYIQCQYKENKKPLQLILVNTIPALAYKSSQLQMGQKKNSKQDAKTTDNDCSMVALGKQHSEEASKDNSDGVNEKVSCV

In general, melting point refers to the temperature of the solid-liquid transition. As to `N#Cc1cccc(S(=O)(=O)c2ccc3c(c2)CCC[C@H]3CN)c1` (as salt: oxalate) [Compound 52, (R)-3-(5-Aminomethyl-5,6,7,8-tetrahydro-naphthalene-2-sulfonyl)-benzonitrile], the melting point was in the range of 212 to 213 °C. The molecule `CC1(C)CN=C(NCC2CCCc3ccc(S(=O)(=O)c4ccccc4)cc32)NC1` (stereo not drawn) [Compound 11, (7-Benzenesulfonyl-1,2,3,4-tetrahydro-naphthalen-1-ylmethyl)-(5,5-dimethyl-1,4,5,6-tetrahydro-pyrimidin-2-yl)-amine] returned a melting point of 140 to 145 °C. In the case of `CNC[C@H]1CCCc2cc(S(=O)(=O)c3ccccc3)ccc21` (as salt: TFA) [Compound 40, (S)-(6-Benzenesulfonyl-1,2,3,4-tetrahydro-naphthalen-1-ylmethyl)-methyl-amine], the melting point is 146 to 147 °C. Take `CNC[C@@H]1CCCc2cc(S(=O)(=O)c3cccc(OC)c3)ccc21` (as salt: HCl) [Compound 50, (R)-[6-(3-Methoxy-benzenesulfonyl)-1,2,3,4-tetrahydro-naphthalen-1-ylmethyl]-methyl-amine]: the melting point is 265 to 266 °C.

For the molecule `CC(=N)NCC1CCCc2cc(S(=O)(=O)c3ccccc3)ccc21` (stereo not drawn) [N-(6-Benzenesulfonyl-1,2,3,4-tetrahydro-naphthalen-1-ylmethyl)-acetamidine], the Ki in series [1] is ~0.282 nM. `N=C(N)CCC1CCCc2cc(S(=O)(=O)c3ccccc3)ccc21` (stereo not drawn) [3-(6-Benzenesulfonyl-1,2,3,4-tetrahydro-naphthalen-1-yl)-propionamidine]: the Ki in series [2] is ~0.141 nM.
